# Measured values published in PubChem BioAssay (NCI).
#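 Five concentrations, 48 hours, 96-well plates. Abbreviation: GI50, concentration required for 50% inhibition of growth. TGI: total growth inhibition.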
# Legend:
# Experiment in all cases: growth of human tumour cells (NCI), 48 h
# SK-MEL-2 melanoma = tested on: SK-MEL-2 melanoma
# COLO 205 colon = tested on: COLO 205 colon
# SK-OV-3 ovarian = tested on: SK-OV-3 ovarian
# NCI-H226 lung = tested on: NCI-H226 lung
# SK-MEL-28 melanoma = tested on: SK-MEL-28 melanoma
# A549 NSCLC = tested on: A549 NSCLC
# SN12C renal = tested on: SN12C renal
# M14 melanoma = tested on: M14 melanoma
# KM12 colon = tested on: KM12 colon
# TK-10 renal = tested on: TK-10 renal
Structure (SMILES),TGI (SK-MEL-2 melanoma),TGI (COLO 205 colon),TGI (SK-OV-3 ovarian),TGI (NCI-H226 lung),TGI (SK-MEL-28 melanoma),TGI (A549 NSCLC),TGI (SN12C renal),TGI (M14 melanoma),TGI (KM12 colon),TGI (TK-10 renal),GI50 (SK-MEL-2 melanoma),GI50 (COLO 205 colon),GI50 (SK-OV-3 ovarian),GI50 (NCI-H226 lung),GI50 (SK-MEL-28 melanoma),GI50 (A549 NSCLC),GI50 (SN12C renal),GI50 (M14 melanoma),GI50 (KM12 colon),GI50 (TK-10 renal)
CC(C)NC(=O)OCc1nnn2c1C(OC(=O)NC(C)C)CC2 (centres undefined),> 100 µM,> 100 µM,> 100 µM,> 100 µM,> 100 µM,> 100 µM,> 100 µM,> 100 µM,> 100 µM,> 100 µM,,,,,,,,,,
CN(NC(=O)/C(=C/c1ccc(O)cc1)NC(=O)c1ccccc1)c1ccnc2cc(Cl)ccc12,44.4 µM,36.2 µM,36.6 µM,32.7 µM,38.1 µM,38.4 µM,48.6 µM,36.6 µM,35.8 µM,30 µM,,,,,,,,,,
COc1cc([C@@H]2c3cc4c(cc3[C@H](OC3OC5COC(c6ccccc6)OC5C(O)C3O)[C@H]3COC(=O)[C@H]23)OCO4)cc(OC)c1OC (some centres undefined),5.64 µM,0.935 µM,18.5 µM,37.6 µM,3.06 µM,5.68 µM,20.6 µM,17.9 µM,1.55 µM,5.51 µM,0.978 µM,0.28 µM,0.441 µM,4.58 µM,0.71 µM,0.344 µM,0.368 µM,0.351 µM,0.326 µM,1.13 µM
O=c1[nH]nc(-c2ccccc2)c(-c2ccccc2)c1-n1nc(-c2ccccc2)c2ccccc2c1=O,> 100 µM,> 100 µM,> 100 µM,> 100 µM,> 100 µM,> 100 µM,> 100 µM,> 100 µM,> 100 µM,> 100 µM,,,,,,,,,,
COC(=O)C1=C(O)C(O)=C(C(=O)OC)CC1,> 100 µM,> 100 µM,> 100 µM,> 100 µM,> 100 µM,> 100 µM,> 100 µM,> 100 µM,> 100 µM,> 100 µM,,,,,,,,,,
COc1ccc(C(=O)CC2(O)C(=O)Nc3c(Cl)ccc(Cl)c32)cc1 (centres undefined),> 44.1 µM,5.3 µM,> 100 µM,> 100 µM,> 100 µM,> 100 µM,> 95.1 µM,> 22.2 µM,> 59.2 µM,> 100 µM,2.21 µM,0.954 µM,2.89 µM,30.6 µM,6.22 µM,1.55 µM,4.6 µM,0.56 µM,0.732 µM,8.98 µM
COc1ccc(NC(=O)CC/C(CC(=O)c2ccco2)=N/Nc2ccc([N+](=O)[O-])cc2[N+](=O)[O-])cc1,> 100 µM,> 100 µM,> 100 µM,> 100 µM,> 100 µM,> 100 µM,> 100 µM,> 100 µM,> 100 µM,> 100 µM,,,,,,,,,,
COc1cc(-c2cc(-c3ccc(N(C)C)cc3)nc(N3CCC(O)CC3)c2C#N)cc(OC)c1OC,1.07 µM,3.42 µM,57.7 µM,,3.23 µM,,6.44 µM,1.3 µM,4 µM,15.7 µM,0.37 µM,0.532 µM,2.11 µM,0.717 µM,0.992 µM,0.378 µM,0.689 µM,0.282 µM,0.579 µM,1.81 µM
O=C1CCCC1C(=O)Nc1ccc2ccccc2c1 (centres undefined),> 100 µM,> 100 µM,> 100 µM,> 100 µM,> 100 µM,> 100 µM,> 100 µM,> 100 µM,> 100 µM,> 100 µM,,,,,,,,,,
CC(C)Oc1cc(OCC(=O)O)cc(C(=O)N(CCC(N)=O)C(=O)Nc2ccc(C(=O)O)cc2OC(C)C)c1,> 100 µM,> 100 µM,> 100 µM,> 100 µM,> 100 µM,> 100 µM,> 100 µM,> 100 µM,> 100 µM,> 100 µM,> 100 µM,> 100 µM,> 100 µM,> 100 µM,> 100 µM,> 100 µM,> 100 µM,> 100 µM,> 100 µM,> 100 µM
FC(F)(F)c1ccc2nc(-c3nc(-c4ccccc4)n4ccccc34)[nH]c2c1,40.3 µM,> 100 µM,3.53 µM,32.9 µM,31.6 µM,11.1 µM,8.56 µM,> 100 µM,> 100 µM,5.32 µM,14.9 µM,4.88 µM,1.86 µM,10.9 µM,9.22 µM,3.12 µM,2.59 µM,17.7 µM,5.11 µM,2.85 µM
COc1ccc(/C=C2/SC(=Nc3c(C)nn(-c4ccccc4)c3N)NC2=O)cc1,17.2 µM,19.2 µM,25.3 µM,45.3 µM,50.5 µM,24 µM,55.2 µM,22.6 µM,13.6 µM,57.3 µM,3.99 µM,3.84 µM,3.65 µM,8.28 µM,11.6 µM,2.74 µM,8.39 µM,3.72 µM,3.5 µM,7.12 µM
O=C(Nc1ccc(Cl)c(Cl)c1)Nc1ccc(Cl)c([N+](=O)[O-])c1,5.5 µM,4.9 µM,5.89 µM,5.54 µM,4.62 µM,8.27 µM,3.94 µM,5.04 µM,4.38 µM,6.9 µM,1.14 µM,1.12 µM,2.01 µM,1.3 µM,1.3 µM,1.41 µM,1.04 µM,1.46 µM,1.07 µM,1.42 µM
CCc1nc(N)nc(N)c1-c1ccc(Cl)cc1,> 100 µM,> 100 µM,> 100 µM,> 100 µM,> 100 µM,> 100 µM,> 100 µM,> 100 µM,> 100 µM,> 100 µM,,,84.9 µM,47.9 µM,> 100 µM,2.23 µM,5.04 µM,,16.1 µM,88.3 µM
CCOC(=O)c1cnc2ccc(Cl)cc2c1NCCCN(C)C,62.6 µM,24.6 µM,> 100 µM,92.2 µM,56.3 µM,67.7 µM,> 100 µM,33 µM,> 100 µM,> 100 µM,29.1 µM,10.5 µM,34.9 µM,19.9 µM,22.9 µM,21.2 µM,20.5 µM,17.8 µM,25.8 µM,27.5 µM
Cn1cc(-c2ccc3cc(-c4ccc(CC(=O)Nc5cc(C(C)(C)C)nn5C)cc4)cnc3c2)cn1,,> 100 µM,> 100 µM,> 100 µM,> 100 µM,> 100 µM,> 100 µM,> 100 µM,> 100 µM,> 100 µM,0.138 µM,0.441 µM,0.109 µM,0.317 µM,0.41 µM,0.336 µM,0.23 µM,0.144 µM,0.0233 µM,0.492 µM
CCN(CC)CCN(C)CC(C)(C)C(=O)/C=C/c1ccccc1,24.2 µM,26.6 µM,26.6 µM,32.4 µM,30.3 µM,47.2 µM,22.7 µM,25.7 µM,25.4 µM,36.8 µM,,,,,,,,,,
NC(=O)C/C=C/CC(N)=O,> 100 µM,> 100 µM,> 100 µM,> 100 µM,> 100 µM,> 100 µM,> 100 µM,> 100 µM,> 100 µM,> 100 µM,,,,,,,,,,
COc1ccc(NC(=O)c2ccc(NC3=C(Cl)C(=O)N(Cc4ccccc4)C3=O)cc2)cc1,56.1 µM,> 100 µM,36.2 µM,35.9 µM,31.6 µM,29.9 µM,30.2 µM,28.6 µM,38.2 µM,38 µM,10.4 µM,10.9 µM,18.4 µM,14.5 µM,10.1 µM,10.4 µM,14.4 µM,9.42 µM,16.8 µM,22.1 µM
